Test results from patent US10336746B1, “RAD51 inhibitors” (Cyteir Therapeutics, Inc., priority 2017, dated 2019).
Where two headings read alike, the source gives them in different places.

Assays:
[1] = system: Daudi cell line (AID positive); experiment: Primary screening cell killing assay, Daudi cell line (AID positive); assay type: cell-based; settings: Homo sapiens, 168 h, cell death on Day 7, Cell-Titer Glo
Experimental: (§1) Primary screening was a phenotypic screen that utilized the synthetic lethal interaction between AID and RAD51 to identify compounds that were both potent and on target. AID expressing cells are dependent upon RAD51 for survival; inhibiting RAD51 in AID positive cells results in a cytotoxic effect.
The first step was to set up a cell killing assay in the Daudi cell line (AID positive). A 96 well u-bottom plate was prepared by writing the experiment number, plate number, date and initials in the top right corner of the plate lid. With a sterile 300 ml reservoir, and 25 ml serological pipette, evaporation buffer media was pipetted into reservoir in 25 ml increments. Using the liquid handler, 150 ul of evaporation buffer media was pipetted from reservoir into rows A and H, and Columns 1 and 12 of the 96 well u-bottom plate. Cell cultures were counted to obtain the density of cells per ml, and the culture viability. The cell density information was used to obtain 1,000,000 cells from culture using a 5 mL serological pipette into an epi tube. The cell density information from the culture was used to calculate the number of cells and volume of media needed for the assay to seed 1250 cells in 130 ul of media per available culture well in the 96 well u-bottom plate. Rows B through F were used for cells (50 wells in total), with row G left for an empty media control. The calculation was overestimated by 10 mL to account for the dead volume in the 300 ml reservoir. Once the media volume was calculated, the appropriate volume of media was pipetted in 25 mL increments into the 250 mL bottle using a 25 mL serological pipette. The 250 ml bottle was capped tightly, and placed into a 37° C. water bath for 2 minutes. While the culture media was warming, 10 mL of fresh media was pipetted from the 500 mL culture media bottle into a sterile 25 mL reservoir. Using the Eppendorf multichannel pipette, 130 ul of media was pipetted from the 25 mL reservoir into row G of the 96 well u-bottom plate. Once the 250 mL bottle of media was warmed, the volume of culture needed was pipetted into the bottle, and mixed gently with a 25 mL serological pipette as to not create bubbles, and then the contents of the bottle were pipetted into a new 300 mL reservoir. Using the liquid handler, 130 ul of culture was pipetted from the 300 mL reservoir into rows B through F of the 96 well u-bottom plate. Once the culture was added, the plate was placed into a 37° C. incubator until the compound master plate was prepared for use.
Two 96 well u-bottom plates were prepared by writing the master plate name in the upper right corner of the plate lid. Labeling one DMSO master and the other Media Master. The compounds of interest were obtained from the laboratory freezer, and placed into a 25 well storage box with a lid, and set the box aside. The compounds were vortexed after thawing but before use. Using an automatic multichannel pipette, 20 ul of 100% DMSO was pipetted into wells B3-B11 through G3-G11 of the DMSO master plate. For each compound on the master plate, 50 ul of the compound were pipetted in the appropriate well of row 2 (reference plate map to determine appropriate well). A serial dilution was prepared beginning by aspirating 20 ul from row 2 and mixing with row 3, repeating until row 11 was reached. Using the liquid handler, 194 ul of Daudi media was dispensed into wells B2-B11 through G2-G11 of the Media master plate. Using the liquid handler, 6 ul from the DMSO master plate was aspirated and dispensed into the media master plate, mixing 100 ul twice.
Compounds from master plate were then added to the culture plate. The culture plates were removed from the incubator, and set inside the biosafety cabinet. Using a liquid handler, 20 ul from wells B2 to B11 through G2 to G11 of master plate were aspirated, and dispensed into wells B2 to B11 through G2 to G11 of culture plate. This set was continued with each culture plate. […]

[2] = system: WI-38 cells (AID negative); experiment: Primary screening cell killing assay repeated in WI-38 cells (AID negative); assay type: cell-based; settings: Homo sapiens, 168 h, cell death on Day 7, Cell-Titer Glo
Experimental: as §1
Percent cell death and EC50 values were calculated by comparing the cell viability of the compound treated wells to the non-treated wells. Normalized RLU values were obtained by subtracting the media well values from each of the wells in the same column, and then dividing that value by the DMSO treated cells values. The percent kill was then calculated by subtracting the normalized RLU value from 1 and multiplying by 100. The average normalized percent kill value and standard error of the mean was then calculated. The kill values were then inputted into Prism with the corresponding standard errors. In Prism a non-linear regression line was plotted with the data points using a semi-log scale, and the EC50 value was calculated.

[3] = Bi-directional Caco-2 permeability; assay type: in vitro ADME; settings: human; for efflux ratio at 90 min: Caco-2, read-out: BA/AB Ratio; for Papp A→B at 90 min: Caco-2, apical to basolateral, read-out: AB Papp (cm/sec × 10^6); for Papp A→B at 90 min / Papp B→A at 90 min: 37 C, up to 90 minutes; for Papp B→A at 90 min: Caco-2, basolateral to apical, read-out: BA Papp (cm/sec × 10^6)
Experimental: Bi-directional Caco-2 permeability was assayed. Caco-2 cells were seeded onto permeable polycarbonate supports and allowed to differentiate for about 3 weeks prior to being used in the assays. The cells were then exposed to the compounds from either the apical or basolateral sides and incubated at 37 C for up to 90 minutes under light agitation. Compound transport was then measured using LC/MS/MS analysis at 30, 60, and 90 minutes.

[4] = Caco-2, Caco-2, AB direction, read-out: AB Recovery %
[5] = Caco-2, Caco-2, BA direction, read-out: BA Recovery %

| Compound | EC50 [1] [nM] | EC50 [2] [nM] | recovery at 90 min [3, 4] [%] | recovery at 90 min [3, 5] [%] | efflux ratio at 90 min [3] | Papp A→B at 90 min [3] [×10⁻⁶ cm/s] | Papp B→A at 90 min [3] [×10⁻⁶ cm/s] |
| --- | --- | --- | --- | --- | --- | --- | --- |
| CC(C)NC(=O)OC1CCN(c2ncc(-c3ccc(NC(=O)NCc4ccccc4)cc3S(=O)(=O)NC(C)(C)C)s2)CC1 [Ex. 3, [1-[5-[4-(benzylcarbamoylamino)-2-(tert-butylsulfamoyl)phenyl]thiazol-2-yl]-4-piperidyl] N-isopropylcarbamate] | ≤ 100 | > 1000 | – | – | – | – | – |
| CC(C)OC(=O)N1CCC(c2ncc(-c3ccc(NC(=O)NCc4ccccn4)cc3S(=O)(=O)NC(C)(C)C)s2)CC1 [Ex. 4, isopropyl 4-[5-[2-(tert-butylsulfamoyl)-4-(2-pyridylmethylcarbamoylamino)phenyl]thiazol-2-yl]piperidine-1-carboxylate] | > 1000 | > 1000 | – | – | – | – | – |
| CC(C)OC(=O)Nc1ccc(-c2cnc(N3CCN(C(=O)OC(C)C)CC3)s2)c(S(=O)(=O)NC(C)(C)C)c1 [Ex. 5, isopropyl 4-[5-[2-(tert-butylsulfamoyl)-4-(isopropoxycarbonylamino)phenyl]thiazol-2-yl]piperazine-1-carboxylate] | > 1000 | – | 34.7 | 80.8 | 0.4 | 5.9 | 2.2 |
| CC(C)OC(=O)Nc1ccc(-c2cnc([C@H]3CC[C@H](NC(=O)OC4CCCC4)CC3)s2)c(S(=O)(=O)NC(C)(C)C)c1 [Ex. 7, trans-isopropyl N-[3-(tert-butylsulfamoyl)-4-[2-[4-(cyclopentoxycarbonylamino)cyclohexyl]thiazol-5-yl]phenyl]carbamate] | 100 to 1000 | – | 55.9 | 92 | 1.2 | 1.7 | 2.1 |
| CC(C)OC(=O)NC12CCC(c3ncc(-c4ccc(NC(=O)N[C@@H](C)c5ccccc5)cc4S(=O)(=O)NC(C)(C)C)s3)(CC1)CC2 [Ex. 13, isopropyl (S)-(4-(5-(2-(N-(tert-butyl)sulfamoyl)-4-(3-(1-phenylethyl)ureido)phenyl)thiazol-2-yl)bicyclo[2.2.2]octan-1-yl)carbamate] | ≤ 100 | > 1000 | – | – | – | – | – |
| CC(C)OC(=O)NC12CCC(c3ncc(-c4ccc(NC(=O)N[C@H](C)c5ccccc5)cc4S(=O)(=O)NC(C)(C)C)s3)(CC1)CC2 [Ex. 14, isopropyl (R)-(4-(5-(2-(N-(tert-butyl)sulfamoyl)-4-(3-(1-phenylethyl)ureido)phenyl)thiazol-2-yl)bicyclo[2.2.2]octan-1-yl)carbamate] | ≤ 100 | > 1000 | – | – | – | – | – |
| CC(C)OC(=O)NC12CCC(c3ncc(-c4ccc(NC(=O)N[C@@H](C)c5ccccn5)cc4S(=O)(=O)NC(C)(C)C)s3)(CC1)CC2 [Ex. 15, isopropyl (S)-(4-(5-(2-(N-(tert-butyl)sulfamoyl)-4-(3-(1-(pyridin-2-yl)ethyl)ureido)phenyl)thiazol-2-yl)bicyclo[2.2.2]octan-1-yl)carbamate] | ≤ 100 | > 1000 | – | – | – | – | – |
| CC(C)OC(=O)NC12CCC(c3ncc(-c4ccc(NC(=O)N[C@H](C)c5ccccn5)cc4S(=O)(=O)NC(C)(C)C)s3)(CC1)CC2 [Ex. 16, isopropyl (R)-(4-(5-(2-(N-(tert-butyl)sulfamoyl)-4-(3-(1-(pyridin-2-yl)ethyl)ureido)phenyl)thiazol-2-yl)bicyclo[2.2.2]octan-1-yl)carbamate] | ≤ 100 | > 1000 | – | – | – | – | – |
| CC(C)NC(=O)O[C@H]1CC[C@H](c2ncc(-c3ccc(NC(=O)OC(C)C)cc3S(=O)(=O)NC(C)(C)C)s2)CC1 [Ex. 20, trans-isopropyl N-[3-(tert-butylsulfamoyl)-4-[2-[4-(isopropylcarbamoyloxy)cyclohexyl]thiazol-5-yl]phenyl]carbamate] | > 1000 | – | 44.8 | 96.6 | 1.1 | 9.4 | 10.4 |
| CC(C)NC(=O)O[C@H]1CC[C@H](c2ncc(-c3ccc(NC(=O)NCc4ccccc4)cc3S(=O)(=O)NC(C)(C)C)s2)CC1 [Ex. 21, (1r,4r)-4-(5-(4-(3-benzylureido)-2-(N-(tert-butyl)sulfamoyl)phenyl)thiazol-2-yl)cyclohexyl isopropylcarbamate] | ≤ 100 | – | 58.6 | 78.3 | 3 | 3.6 | 10.7 |
| CC(C)OC(=O)N[C@H]1CC[C@H](c2ncc(-c3ccc(NC(=O)NCc4ccccc4F)cc3S(=O)(=O)NC(C)(C)C)s2)CC1 [Ex. 28, isopropyl ((1r,4r)-4-(5-(2-(N-(tert-butyl)sulfamoyl)-4-(3-(2-fluorobenzyl)ureido)phenyl)thiazol-2-yl)cyclohexyl)carbamate] | ≤ 100 | – | 66.9 | 81 | 1.7 | 1.9 | 3.3 |
| CC(C)OC(=O)N[C@H]1CC[C@H](c2ncc(-c3ccc(NC(=O)OC[C@H]4CCCN4C)cc3S(=O)(=O)NC(C)(C)C)s2)CC1 [Ex. 34, isopropyl ((1R,4r)-4-(5-(2-(N-(tert-butyl)sulfamoyl)-4-(((((R)-1-methylpyrrolidin-2-yl)methoxy)carbonyl)amino)phenyl)thiazol-2-yl)cyclohexyl)carbamate] | 100 to 1000 | – | 98.2 | 96.8 | 104 | 0.4 | 45.2 |
| CC(C)OC(=O)N[C@H]1CC[C@H](c2ncc(-c3ccc(NC(=O)OC[C@@H]4CCCN4C)cc3S(=O)(=O)NC(C)(C)C)s2)CC1 [Ex. 35, isopropyl ((1S,4r)-4-(5-(2-(N-(tert-butyl)sulfamoyl)-4-(((((S)-1-methylpyrrolidin-2-yl)methoxy)carbonyl)amino)phenyl)thiazol-2-yl)cyclohexyl)carbamate] | 100 to 1000 | – | 98.8 | 108 | 99.1 | 0.4 | 41 |
| CC(C)OC(=O)Nc1ccc(-c2cnc([C@H]3CC[C@H](NC(=O)OC(C)(C)C)CC3)s2)c(S(=O)(=O)NC(C)(C)C)c1 [Ex. 44, trans-isopropyl N-[4-[2-[4-(tert-butoxycarbonylamino)cyclohexyl]thiazol-5-yl]-3-(tert-butylsulfamoyl)phenyl]carbamate] | > 1000 | – | 36.2 | 69.4 | 1.3 | 3.2 | 4.2 |
| CC(C)(C)NS(=O)(=O)c1cc(NC(=O)NCc2ccccn2)ccc1-c1cnc(C2CCC(NC(=O)OC(C)(C)C)CC2)s1 (stereo not drawn) [Ex. 45, tert-butyl ((1r,4r)-4-(5-(2-(N-(tert-butyl)sulfamoyl)-4-(3-(pyridin-2-ylmethyl)ureido)phenyl)thiazol-2-yl)cyclohexyl)carbamate] | ≤ 100 | – | 73.6 | 84.4 | 1.4 | 7.6 | 10.8 |
